Measured values as given in paper PMC5917010, “Structural basis for GPR40 allosteric agonism and incretin stimulation” (Nature Communications, 2018).

How the values were obtained:
human GPR40 (A2 site) = molecular target: T1, human GPR40 (A2 site) (Homo sapiens, UniProt O14842); experiment: A2 site radioligand binding with [3H]-AM-1638; details: Supplementary Table 1; read-out: Human GPR40 Binding to A2 Ki
T1 construct: full length recombinant human GPR40 (GPR40) cDNA; expressed in transfected cells; host or cells: HEK 293, stably transfected; crude cell surface membranes
Protocol: (§1) Crude cell surface membranes were prepared from human embryonic kidney 293 (HEK 293) cells stably transfected (for the wild type) or transiently transfected (for the mutants and corresponding wild type) with full length recombinant human GPR40 (GPR40) cDNA, using differential centrifugation methods.
A2 Site Binding. 10 µL of compound diluted in 100% DMSO and 90 µL of Assay Buffer (50 mM Tris-HCl, pH 7.5, 10 mM CaCl2, 10 mM MgCl2, 0.1% w/v Bacitracin, 2.5% w/v dextran charcoal-treated FBS) were added to a deep 96-well polypropylene assay plate (Beckman Coulter). Two hundred μl of [^3H]-AM-1638 (84 Ci/mmol, Quotient Bioresearch Radiochemicals, Ltd.; 0.5 nM final concentration) and 200 µL of GPR40 membranes (5 µg/well), both diluted in Assay Buffer, were added to the assay plate, followed by a 1 min shake and a 1 h incubation at room temperature (22 °C).
(§2) Assays were terminated by filtration through GF/C glass fiber filtermats (Perkin Elmer) presoaked in 50 mM Tris–HCl, pH 7.5, using a Mach III cell harvester (TomTec). Filtermats were washed two times with 5 mL of ice-cold 50 mM Tris–HCl, pH 7.5 buffer, dried 1 h in a convection oven at 60 °C and embedded with Meltilex A solid scintillant (Perkin Elmer). Radioactivity was determined as counts per min (cpm) using a Trilux Microbeta plate scintillation counter (Perkin Elmer).

human GPR40 (A1 site) = molecular target: T2, human GPR40 (A1 site) (Homo sapiens, UniProt O14842); experiment: A1 site radioligand binding with [3H]-TAK-875; details: Supplementary Table 1
T2 construct: full length recombinant human GPR40 (GPR40) cDNA; expressed in transfected cells; host or cells: HEK 293, stably transfected; crude cell surface membranes
Protocol: as §1
A1 Site Binding. 10 µL of compound diluted in 100% DMSO and 90 µL of Assay Buffer (50 mM Tris-HCl, pH 7.5, 5 mM CaCl2, 5 mM MgCl2, 0.1% w/v fatty acid-free BSA) were added to a deep 96-well polypropylene assay plate (Beckman Coulter).
as §2

human GPR40 [1] = molecular target: T3, human GPR40 (Homo sapiens, UniProt O14842); experiment: Human GPR40 Calcium (Supplementary Table 1); assay type: cell-based
T3 construct: HEK293 cells stably overexpressing full length human GPR40; expressed in transfected cells

human GPR40 [2] = molecular target: T3, human GPR40; experiment: Human GPR40 b-arrestin; assay type: cell-based
Mouse GPR40 = Mouse GPR40 (Mus musculus, UniProt Q76JU9); experiment: Mouse GPR40 b-arrestin; assay type: cell-based
Rat GPR40 = Rat GPR40 (Rattus norvegicus, UniProt Q8K3T4); experiment: Rat GPR40 b-arrestin; assay type: cell-based
human GPR40 [3] = molecular target: T3, human GPR40; experiment: Human GPR40 IP1; assay type: cell-based
Human GPR120 [4] = molecular target: T4, Human GPR120 (Homo sapiens, UniProt Q5NUL3); experiment: Human GPR120 binding; details: Supplementary Table 1
T4 sequence (Q5NUL3 1-361): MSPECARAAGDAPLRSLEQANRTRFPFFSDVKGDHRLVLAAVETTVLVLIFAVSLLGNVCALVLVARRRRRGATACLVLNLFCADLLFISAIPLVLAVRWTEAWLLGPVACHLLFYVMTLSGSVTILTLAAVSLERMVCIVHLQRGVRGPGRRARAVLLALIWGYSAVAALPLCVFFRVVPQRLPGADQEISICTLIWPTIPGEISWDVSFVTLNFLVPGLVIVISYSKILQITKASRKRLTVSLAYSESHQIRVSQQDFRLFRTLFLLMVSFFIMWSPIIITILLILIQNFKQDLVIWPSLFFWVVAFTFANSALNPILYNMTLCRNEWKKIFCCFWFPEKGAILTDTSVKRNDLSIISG

Human GPR120 [5] = molecular target: T4, Human GPR120; experiment: Human GPR120 Calcium (FLIPR); assay type: cell-based; details: Supplementary Table 1
Human GPR120 [6] = molecular target: T4, Human GPR120; experiment: Human GPR120 b-arrestin; assay type: cell-based; details: Supplementary Table 1
Mouse GPR120 = molecular target: T5, Mouse GPR120 (Mus musculus, UniProt Q7TMA4); experiment: Mouse GPR120 b-arrestin; assay type: cell-based; details: Supplementary Table 1
T5 sequence (Q7TMA4 1-361): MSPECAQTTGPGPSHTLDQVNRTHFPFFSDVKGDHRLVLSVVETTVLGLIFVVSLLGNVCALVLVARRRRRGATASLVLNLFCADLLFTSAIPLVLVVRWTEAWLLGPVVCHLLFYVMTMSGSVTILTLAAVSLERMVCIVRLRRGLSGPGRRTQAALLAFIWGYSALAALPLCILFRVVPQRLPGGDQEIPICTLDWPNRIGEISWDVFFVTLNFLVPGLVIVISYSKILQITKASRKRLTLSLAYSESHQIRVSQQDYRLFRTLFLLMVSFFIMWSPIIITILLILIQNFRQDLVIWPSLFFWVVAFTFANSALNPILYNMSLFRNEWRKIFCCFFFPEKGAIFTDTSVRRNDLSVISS

human PPARalpha = molecular target: T6, human PPARalpha (Homo sapiens, UniProt Q07869); experiment: human PPARalpha binding; details: Supplementary Table 1
T6 sequence (Q07869 1-468): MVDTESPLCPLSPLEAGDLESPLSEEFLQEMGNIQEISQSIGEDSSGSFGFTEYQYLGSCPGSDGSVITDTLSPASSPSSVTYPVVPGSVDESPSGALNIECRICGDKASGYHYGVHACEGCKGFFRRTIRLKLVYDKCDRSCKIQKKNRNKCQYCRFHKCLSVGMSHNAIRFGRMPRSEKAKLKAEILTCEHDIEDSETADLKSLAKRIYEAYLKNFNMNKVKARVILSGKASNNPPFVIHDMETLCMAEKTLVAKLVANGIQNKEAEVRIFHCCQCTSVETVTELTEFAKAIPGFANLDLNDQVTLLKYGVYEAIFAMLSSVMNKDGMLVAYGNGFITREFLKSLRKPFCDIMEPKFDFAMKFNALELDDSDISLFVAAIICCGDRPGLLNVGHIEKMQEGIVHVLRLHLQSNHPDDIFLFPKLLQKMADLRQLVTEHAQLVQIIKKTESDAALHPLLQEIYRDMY

human PPARdelta = molecular target: T7, human PPARdelta (Homo sapiens, UniProt Q03181); experiment: human PPARdelta binding; details: Supplementary Table 1
T7 sequence (Q03181 1-441): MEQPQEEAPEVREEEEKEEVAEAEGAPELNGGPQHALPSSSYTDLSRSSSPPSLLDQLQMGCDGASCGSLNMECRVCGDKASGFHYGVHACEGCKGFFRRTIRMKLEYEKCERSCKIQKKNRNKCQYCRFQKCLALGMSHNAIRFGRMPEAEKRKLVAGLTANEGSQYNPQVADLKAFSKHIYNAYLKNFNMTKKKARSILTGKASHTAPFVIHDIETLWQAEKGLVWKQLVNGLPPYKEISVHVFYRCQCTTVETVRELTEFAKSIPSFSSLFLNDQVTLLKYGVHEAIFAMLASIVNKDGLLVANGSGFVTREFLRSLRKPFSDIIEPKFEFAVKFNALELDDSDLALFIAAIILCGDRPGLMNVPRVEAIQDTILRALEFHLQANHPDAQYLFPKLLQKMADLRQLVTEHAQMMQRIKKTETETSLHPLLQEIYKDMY

human PPARgama = molecular target: T8, human PPARgama (Homo sapiens, UniProt P37231); experiment: human PPARgamma binding; details: Supplementary Table 1
T8 sequence (P37231 1-505): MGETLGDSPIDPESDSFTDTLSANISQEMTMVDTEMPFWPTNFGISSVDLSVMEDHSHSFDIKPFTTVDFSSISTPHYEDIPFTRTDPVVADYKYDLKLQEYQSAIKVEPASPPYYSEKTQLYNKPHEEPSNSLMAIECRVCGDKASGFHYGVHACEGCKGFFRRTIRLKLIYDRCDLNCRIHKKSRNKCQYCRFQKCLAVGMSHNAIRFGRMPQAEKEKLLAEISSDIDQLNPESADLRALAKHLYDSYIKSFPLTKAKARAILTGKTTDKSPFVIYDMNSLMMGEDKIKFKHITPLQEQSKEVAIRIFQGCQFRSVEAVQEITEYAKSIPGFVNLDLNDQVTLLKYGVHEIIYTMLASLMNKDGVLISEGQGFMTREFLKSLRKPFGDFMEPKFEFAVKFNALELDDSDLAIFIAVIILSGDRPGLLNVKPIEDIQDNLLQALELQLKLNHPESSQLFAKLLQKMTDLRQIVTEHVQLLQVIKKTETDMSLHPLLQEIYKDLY

[7] = system: GPR40 knock-out (KO) mice; experiment: IPGTT in GPR40 knock-out mice; assay type: in vivo, mouse; details: high dose of compound 1
Protocol: Nine to ten week old male ICR mice (Envigo) and GPR40 KO mice (Taconic) were used. The day before an IPGTT (~1600), animals were fasted in clean cages. The following morning (~0800), animals were randomized on fasting glucose and body weight (N = 6 per group). Mice were orally administered a test article or vehicle 60 min prior to an intraperitoneal (IP) injection of glucose (2g/kg). Blood glucose levels were determined by a glucometer from tail bleeds taken at 0, 15, 30, 60, and 120 min after the glucose challenge. An average of two readings were reported at each time point. Also, blood samples were collected into serum tubes at 0, 3, 6, and 15 min post glucose injection for insulin measurement. Serum tubes were centrifuged at 3000g for 5 min and serum transferred into 96-well plates for insulin analysis by a Mesoscale rat/mouse insulin assay.

GPR40 KO mice = experiment: OGTT in GPR40 KO mice; assay type: in vivo, mouse; details: high dose of compound 1
Protocol: Eight to thirteen week old male C57BL/6 or KO mice were used. The day before the study, at 1600 hours, animals were transferred into clean cages and food was removed. The following morning (~0800 hours), mice were randomized by block randomization to treatment groups (N = 5–7 per group) so each group had similar mean and standard deviation of body weight and blood glucose. […] Animals were dosed with vehicle (0.5% MC/0.25% Tween-80) or the test article by oral gavage. Group allocations were not blinded from the experimenters who collected the data. After 60 min compound treatment animals were then given an oral gavage of glucose (2 g/kg). At 0, 15, 30, 60, and 120 min post oral glucose, two glucose readings via glucometers were obtained. The average of two glucose readings was reported at each time point. Data were expressed as mean±standard error (s.e.m.). Blood glucose values were analyzed using ANOVA with repeated measures. Cook’s distance was also calculated from linear regression. All animals were included in the analysis with their individual averaged Cook’s distance < 1. Dunnett’s comparison was performed at each time point by R program. Significance is denoted at p < 0.05.

T3 sequence (O14842 whole entry): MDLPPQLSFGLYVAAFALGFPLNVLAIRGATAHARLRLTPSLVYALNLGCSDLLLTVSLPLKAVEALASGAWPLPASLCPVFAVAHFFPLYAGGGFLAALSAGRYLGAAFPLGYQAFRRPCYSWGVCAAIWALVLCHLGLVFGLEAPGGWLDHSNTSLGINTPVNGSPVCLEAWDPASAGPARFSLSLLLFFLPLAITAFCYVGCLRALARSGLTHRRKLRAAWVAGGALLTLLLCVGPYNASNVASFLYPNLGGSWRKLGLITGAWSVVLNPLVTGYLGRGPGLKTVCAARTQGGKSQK
Mouse GPR40, sequence (Q76JU9 whole entry): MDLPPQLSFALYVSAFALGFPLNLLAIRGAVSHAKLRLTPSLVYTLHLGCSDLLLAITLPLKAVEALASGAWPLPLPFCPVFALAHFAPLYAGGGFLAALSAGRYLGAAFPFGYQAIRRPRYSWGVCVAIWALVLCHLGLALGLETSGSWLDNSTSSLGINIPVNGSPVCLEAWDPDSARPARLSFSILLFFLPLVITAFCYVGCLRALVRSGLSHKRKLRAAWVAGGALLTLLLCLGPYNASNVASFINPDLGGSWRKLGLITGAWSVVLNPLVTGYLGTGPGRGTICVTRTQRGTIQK
Rat GPR40, sequence (Q8K3T4 whole entry): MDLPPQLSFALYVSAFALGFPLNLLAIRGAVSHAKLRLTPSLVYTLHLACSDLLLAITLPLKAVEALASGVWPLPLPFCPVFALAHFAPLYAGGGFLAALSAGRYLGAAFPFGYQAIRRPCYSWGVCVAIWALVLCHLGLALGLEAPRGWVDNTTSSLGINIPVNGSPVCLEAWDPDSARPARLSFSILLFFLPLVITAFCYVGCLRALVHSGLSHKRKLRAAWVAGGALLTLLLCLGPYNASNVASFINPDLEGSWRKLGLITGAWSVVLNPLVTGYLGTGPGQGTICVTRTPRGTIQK
T1 sequence (O14842 whole entry): as the sequence (O14842 whole entry) above
T2 sequence (O14842 whole entry): as above

| Compound | Ki (human GPR40 (A2 site)) | Ki (human GPR40 (A1 site)) | EC50 (human GPR40 [1]) | Emax (human GPR40 [1]) | EC50 (human GPR40 [2]) | Emax (human GPR40 [2]) | EC50 (Mouse GPR40) | Emax (Mouse GPR40) | EC50 (Rat GPR40) | Emax (Rat GPR40) | EC50 (human GPR40 [3]) | Emax (human GPR40 [3]) | EC50 (Human GPR120 [5]) | Ki (human PPARalpha) | IC50 (human PPARdelta) | Ki (human PPARgama) | further results |
| --- | --- | --- | --- | --- | --- | --- | --- | --- | --- | --- | --- | --- | --- | --- | --- | --- | --- |
| CC#C[C@@H](CC(=O)O)c1ccc(OCc2ccc(CN3CCC4(C=Cc5ccccc54)CC3)cc2)cc1 [LY2881835] | > 3.72 µM | 0.0047 µM | 0.0091 µM | 62% | 0.0087 µM | 137% | 0.0008 µM | 133% | 0.002 µM | 124% | 0.00124 µM | 162% | > 50 µM | > 10 µM | > 10 µM | > 10 µM | Ki (Human GPR120 [4]): > 100 µM; EC50 (Human GPR120 [6]): > 100 µM; EC50 (Mouse GPR120): > 50 µM |
| semaglutide [reference compound] | – | – | – | – | – | – | – | – | – | – | – | – | – | – | – | – | glucose lowering in IPGTT, GPR40 KO [7]: can be triggered; insulin secretion in IPGTT, GPR40 KO [7]: can be triggered |
| COc1ccc(F)c(-c2ccc(COc3cccc([C@@H](CC(=O)O)C4CC4)c3)cc2C2=CCCC2(C)C)c1 [AM-1638] | 0.0014 µM | > 6.91 µM | 0.0017 µM | 98% | 0.016 µM | 153% | 0.0227 µM | 112% | 0.105 µM | 113% | 0.00025 µM | 197% | 2.87 µM | 3.17 µM | > 10 µM | > 10 µM | Emax (Human GPR120 [5]): 63% |
| N[C@@H](CC(=O)N1CCn2c(nnc2C(F)(F)F)C1)Cc1cc(F)c(F)cc1F [sitagliptin, reference compound] | – | – | – | – | – | – | – | – | – | – | – | – | – | – | – | – | blood glucose in OGTT, GPR40 KO (GPR40 KO mice): respond to glucose lowering |
